Test in all cases: Assay of kinase activity (ADP-Glo)
What all share (format): biochemical
For orientation: ADP-Glo first removes unused ATP, then detects ADP through luciferase.

In one test the target is CDK4/cyclin D1 (Homo sapiens, UniProt P11802). Particulars: kinase inhibitory activity. An outline of the steps:
(§1)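 Kinase preincubated 10 min with compound in 50 mM Hepes, 10 mM MgCl2, 0.01% Brij35, 2 mM DTT, then substrate/ATP added for 60 min at 25 °C. ADP formed measured by ADP-Glo luminescence; IC50 by nonlinear concentration-response fitting.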

The target in another test is CDK2/cyclin E (Homo sapiens, UniProt P24941). Particulars: kinase inhibitory activity, read-out: CDK2/E1 IC50. The method in brief:
as §1

A further test has as its target CDK9/cyclin T1 (Homo sapiens, UniProt P50750). The following applies: kinase inhibitory activity. The method in brief:
(§2)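 Human CDK6/cyclin D3 and CDK9/cyclin T1 preincubated 10 min at 25 °C with compound in 50 mM Hepes, 10 mM MgCl2, 0.01% Brij35, 2 mM DTT, then reacted 60 min at 25 °C with substrate and ATP. ADP formed measured by ADP-Glo luminescence; IC50 from nonlinear concentration-response fitting.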

The target in another test is CDK6/cyclin D3 (Homo sapiens, UniProt Q00534). The following applies: kinase inhibitory activity. An outline of the steps: as §2

For 1 compound, IC50 results are on record in patent EP4711369A1, “1H-[1,2,3]TRIAZOLO[4,5-H]QUINAZOLINE COMPOUNDS AS PROTEIN KINASE INHIBITORS” (Chengdu Cynogen Bio-Pharmaceutical Technology Co., Ltd., priority 2023, dated 2024).

Chain of CDK9/cyclin T1 (P50750 whole entry, species assumed): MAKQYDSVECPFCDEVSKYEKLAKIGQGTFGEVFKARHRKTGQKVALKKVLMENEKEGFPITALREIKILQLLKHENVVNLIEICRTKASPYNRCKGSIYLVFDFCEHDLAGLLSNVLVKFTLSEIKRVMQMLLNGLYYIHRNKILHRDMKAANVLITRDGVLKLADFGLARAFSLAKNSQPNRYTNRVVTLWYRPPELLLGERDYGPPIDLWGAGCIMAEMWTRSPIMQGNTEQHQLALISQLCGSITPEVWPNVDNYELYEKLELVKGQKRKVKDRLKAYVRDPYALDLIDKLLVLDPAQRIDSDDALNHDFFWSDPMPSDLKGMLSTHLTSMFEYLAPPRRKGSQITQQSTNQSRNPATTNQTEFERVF
Chain of CDK9/cyclin T1 (O60563 whole entry partner, species assumed): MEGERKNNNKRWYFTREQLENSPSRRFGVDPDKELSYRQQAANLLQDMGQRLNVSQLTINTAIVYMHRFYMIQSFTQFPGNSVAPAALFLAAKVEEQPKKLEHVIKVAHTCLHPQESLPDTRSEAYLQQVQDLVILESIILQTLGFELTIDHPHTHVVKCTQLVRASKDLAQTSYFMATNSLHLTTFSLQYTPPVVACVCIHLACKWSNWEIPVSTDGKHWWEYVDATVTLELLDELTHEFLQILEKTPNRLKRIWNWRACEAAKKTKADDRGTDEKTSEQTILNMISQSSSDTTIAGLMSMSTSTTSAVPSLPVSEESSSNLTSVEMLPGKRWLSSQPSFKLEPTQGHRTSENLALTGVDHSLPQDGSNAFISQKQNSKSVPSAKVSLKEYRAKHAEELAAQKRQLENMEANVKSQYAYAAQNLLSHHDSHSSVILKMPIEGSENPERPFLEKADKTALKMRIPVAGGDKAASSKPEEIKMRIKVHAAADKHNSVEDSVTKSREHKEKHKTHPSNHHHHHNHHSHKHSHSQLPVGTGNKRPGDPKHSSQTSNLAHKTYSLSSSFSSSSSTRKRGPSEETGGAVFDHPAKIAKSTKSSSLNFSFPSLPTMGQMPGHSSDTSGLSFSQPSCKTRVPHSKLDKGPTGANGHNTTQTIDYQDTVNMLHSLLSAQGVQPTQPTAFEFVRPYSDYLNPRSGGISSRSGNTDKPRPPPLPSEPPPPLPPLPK
Chain of CDK6/cyclin D3 (Q00534 whole entry, species assumed): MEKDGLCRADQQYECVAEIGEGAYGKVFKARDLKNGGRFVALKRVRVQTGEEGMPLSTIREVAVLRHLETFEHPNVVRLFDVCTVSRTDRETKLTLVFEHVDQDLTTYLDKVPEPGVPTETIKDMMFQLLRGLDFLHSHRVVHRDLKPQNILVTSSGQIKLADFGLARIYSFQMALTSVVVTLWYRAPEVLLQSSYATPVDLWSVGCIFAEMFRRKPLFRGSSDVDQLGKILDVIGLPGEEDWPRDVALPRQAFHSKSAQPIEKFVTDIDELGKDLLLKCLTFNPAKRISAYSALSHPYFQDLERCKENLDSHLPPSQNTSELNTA
Chain of CDK6/cyclin D3 (P30281 whole entry partner, species assumed): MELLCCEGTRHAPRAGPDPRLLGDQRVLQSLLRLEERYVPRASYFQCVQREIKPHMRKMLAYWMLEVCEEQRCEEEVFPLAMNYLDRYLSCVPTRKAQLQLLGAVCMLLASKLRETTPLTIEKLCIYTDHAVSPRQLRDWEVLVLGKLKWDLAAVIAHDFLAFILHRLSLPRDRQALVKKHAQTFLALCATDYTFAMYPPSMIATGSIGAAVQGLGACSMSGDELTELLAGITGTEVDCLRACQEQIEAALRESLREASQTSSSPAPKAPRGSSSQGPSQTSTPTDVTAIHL
Chain of CDK4/cyclin D1 (P11802 whole entry, species assumed): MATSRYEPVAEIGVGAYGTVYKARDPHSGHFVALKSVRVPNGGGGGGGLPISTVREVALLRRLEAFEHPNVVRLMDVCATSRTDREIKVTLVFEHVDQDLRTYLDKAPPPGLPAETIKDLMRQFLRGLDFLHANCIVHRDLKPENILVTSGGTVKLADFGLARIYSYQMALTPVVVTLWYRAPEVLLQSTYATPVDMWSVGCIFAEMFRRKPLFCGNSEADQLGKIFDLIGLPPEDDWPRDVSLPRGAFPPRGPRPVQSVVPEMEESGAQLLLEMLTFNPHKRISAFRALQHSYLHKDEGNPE
Chain of CDK4/cyclin D1 (P24385 whole entry partner, species assumed): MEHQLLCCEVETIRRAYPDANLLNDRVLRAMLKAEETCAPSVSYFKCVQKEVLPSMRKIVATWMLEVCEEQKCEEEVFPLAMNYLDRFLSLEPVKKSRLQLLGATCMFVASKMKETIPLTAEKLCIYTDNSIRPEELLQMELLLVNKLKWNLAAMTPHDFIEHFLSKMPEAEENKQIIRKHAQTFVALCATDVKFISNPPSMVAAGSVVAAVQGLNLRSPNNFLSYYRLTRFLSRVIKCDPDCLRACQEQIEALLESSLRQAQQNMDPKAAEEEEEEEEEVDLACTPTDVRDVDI

As to `CC(C)n1nnc2ccc3cnc(Nc4ccc(C(=O)N5CC[C@H](N(C)C)C5)cc4)nc3c21` [Example I-10, (S)-(3-(Dimethylamino)pyrrolidin-1-yl)(4-((1-isopropyl-1H-[1,2,3]triazolo[4,5-H]quinazolin-8-yl)amino)phenyl)metha none], the IC50 on CDK4/cyclin D1 is 0.6 nM; on CDK2/cyclin E it was 0.1 nM; against CDK9/cyclin T1 it was 2 nM; on CDK6/cyclin D3, 4 nM.
